From publication PMC8409970, “In vitro and in silico studies of bis (indol-3-yl) methane derivatives as potential α-glucosidase and α-amylase inhibitors” (Journal of Enzyme Inhibition and Medicinal Chemistry, 2021)

Target: α-glucosidase (Saccharomyces cerevisiae, UniProt P53341)
Test: Inhibition mechanism study of α-glucosidase inhibitor (enzyme concentration plots, Lineweaver-Burk plots)
Type: biochemical
Settings: Lineweaver-Burk plots
Description: The relationship of enzyme concentration with enzyme activity in presence of compounds 5e, 5 g, and 5 h was firstly investigated.
The inhibitory kinetics of compounds 5e, 5 g, and 5 h on α-glucosidase were studied using Lineweaver-Burk plots.
Besides, we also determined the equilibrium constants of binding of inhibitors to free enzymes (KI) and enzyme-substrate complexes (KIS) through plots of slope (Km/Vm) and vertical intercept (1/Vm) vs inhibitor concentration.
The inhibition mechanism of compounds 5 g, 5e, and 5 h was analysed using similar above method. The enzyme inhibitory kinetics was detected using plots of enzyme concentration vs remaining enzyme activity at different inhibitor concentrations, and the substrate inhibitory kinetics was obtained from Lineweaver-Burk plot of remaining enzyme activity vs substrate concentration in the presence of different inhibitor concentrations.[32]

α-glucosidase, sequence (P53341 whole entry): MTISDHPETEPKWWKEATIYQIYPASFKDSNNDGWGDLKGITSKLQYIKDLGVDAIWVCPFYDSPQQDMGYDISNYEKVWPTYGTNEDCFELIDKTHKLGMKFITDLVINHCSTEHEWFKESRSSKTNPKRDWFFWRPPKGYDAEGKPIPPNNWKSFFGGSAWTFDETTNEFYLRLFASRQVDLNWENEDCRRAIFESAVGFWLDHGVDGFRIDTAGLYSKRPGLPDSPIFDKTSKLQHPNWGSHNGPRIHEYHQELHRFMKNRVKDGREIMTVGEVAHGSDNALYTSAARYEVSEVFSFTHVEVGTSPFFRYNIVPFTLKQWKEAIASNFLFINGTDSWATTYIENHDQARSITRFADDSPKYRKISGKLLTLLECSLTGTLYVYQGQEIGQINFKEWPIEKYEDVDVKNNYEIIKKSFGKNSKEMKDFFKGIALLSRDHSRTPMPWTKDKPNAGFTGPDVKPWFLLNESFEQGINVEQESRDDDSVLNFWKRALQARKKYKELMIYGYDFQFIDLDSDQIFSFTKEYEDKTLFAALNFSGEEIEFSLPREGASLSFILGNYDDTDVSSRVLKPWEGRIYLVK

SMILES	Inhibition type against α-glucosidase
N#CC(c1c[nH]c2cc(Cl)ccc12)c1c[nH]c2cc(Cl)ccc12 [Compound 5e, 2,2-Bis(6-chloro-1H-indol-3-yl)acetonitrile]	mixed-type inhibitors
N#CC(c1c[nH]c2ccc(Br)cc12)c1c[nH]c2ccc(Br)cc12 [Compound 5g, 2,2-Bis(5-bromo-1H-indol-3-yl)acetonitrile]	Mixed type
N#CC(c1c(-c2ccccc2)[nH]c2ccccc12)c1c(-c2ccccc2)[nH]c2ccccc12 [Compound 5h, 2,2-Bis(2-phenyl-1H-indol-3-yl)acetonitrile]	Mixed type

Same assay, conditions: Lineweaver-Burk plots; listed as 5 g

SMILES	Inhibition type against α-glucosidase
N#CC(c1c[nH]c2ccc(Br)cc12)c1c[nH]c2ccc(Br)cc12 [Compound 5g, 2,2-Bis(5-bromo-1H-indol-3-yl)acetonitrile]	mixed-type inhibitors

Same assay, conditions: Lineweaver-Burk plots; listed as 5 h

SMILES	Inhibition type against α-glucosidase
N#CC(c1c(-c2ccccc2)[nH]c2ccccc12)c1c(-c2ccccc2)[nH]c2ccccc12 [Compound 5h, 2,2-Bis(2-phenyl-1H-indol-3-yl)acetonitrile]	mixed-type inhibitors

Same assay, conditions: binding of inhibitor to enzyme-substrate complex

SMILES	KIS value (μM) against α-glucosidase [µM]
N#CC(c1c[nH]c2cc(Cl)ccc12)c1c[nH]c2cc(Cl)ccc12 [Compound 5e, 2,2-Bis(6-chloro-1H-indol-3-yl)acetonitrile]	2.11
N#CC(c1c[nH]c2ccc(Br)cc12)c1c[nH]c2ccc(Br)cc12 [Compound 5g, 2,2-Bis(5-bromo-1H-indol-3-yl)acetonitrile]	1.59
N#CC(c1c(-c2ccccc2)[nH]c2ccccc12)c1c(-c2ccccc2)[nH]c2ccccc12 [Compound 5h, 2,2-Bis(2-phenyl-1H-indol-3-yl)acetonitrile]	1.69

Same assay, conditions: plots of enzyme concentration vs remaining enzyme activity

SMILES	Reversibility of α-glucosidase inhibition
N#CC(c1c[nH]c2cc(Cl)ccc12)c1c[nH]c2cc(Cl)ccc12 [Compound 5e, 2,2-Bis(6-chloro-1H-indol-3-yl)acetonitrile]	reversible
N#CC(c1c[nH]c2ccc(Br)cc12)c1c[nH]c2ccc(Br)cc12 [Compound 5g, 2,2-Bis(5-bromo-1H-indol-3-yl)acetonitrile]	reversible
N#CC(c1c(-c2ccccc2)[nH]c2ccccc12)c1c(-c2ccccc2)[nH]c2ccccc12 [Compound 5h, 2,2-Bis(2-phenyl-1H-indol-3-yl)acetonitrile]	reversible

Target: T1, α-amylase (Sus scrofa, UniProt P00690)
T1 sequence (P00690 16-511): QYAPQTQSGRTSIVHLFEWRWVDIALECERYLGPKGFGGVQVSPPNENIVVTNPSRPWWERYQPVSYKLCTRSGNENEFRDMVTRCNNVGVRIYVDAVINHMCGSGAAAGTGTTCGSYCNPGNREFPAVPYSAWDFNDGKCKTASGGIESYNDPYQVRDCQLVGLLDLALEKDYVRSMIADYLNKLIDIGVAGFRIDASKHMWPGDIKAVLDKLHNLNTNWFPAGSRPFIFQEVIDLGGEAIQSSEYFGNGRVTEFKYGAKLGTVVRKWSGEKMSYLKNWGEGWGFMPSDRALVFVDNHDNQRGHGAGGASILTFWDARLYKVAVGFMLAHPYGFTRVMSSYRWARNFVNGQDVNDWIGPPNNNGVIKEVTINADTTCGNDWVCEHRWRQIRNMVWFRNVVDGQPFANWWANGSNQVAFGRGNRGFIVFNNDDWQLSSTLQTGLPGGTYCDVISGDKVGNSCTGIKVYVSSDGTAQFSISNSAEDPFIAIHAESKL
Test: Inhibition mechanism study of α-amylase inhibitor (enzyme concentration plots, Lineweaver-Burk plots)
Type: biochemical
Settings: Lineweaver-Burk plots
Description: The highest potent inhibitory compounds 5 g, 5 h, and 5 s were evaluated their inhibition mechanism. […] Lineweaver-Burk plots were used to analyse the inhibitory kinetics of compounds 5 g, 5 h, and 5 s. […] Besides, the KI and KIS values of compounds 5 g, 5 h, and 5 s were measured, showing KI values were higher than KIS values (Table 3).
The inhibition mechanism of compounds 5 g, 5 h, and 5S was also analysed. The enzyme inhibitory kinetics was detected using plots of enzyme concentration vs remaining enzyme activity at different inhibitor concentrations, and the substrate inhibitory kinetics was obtained from Lineweaver-Burk plot of remaining enzyme activity vs substrate concentration in the presence of different inhibitor concentrations.

SMILES	Inhibition type against α-amylase
Cn1cc(C(C#N)c2cn(C)c3ccc(Br)cc23)c2cc(Br)ccc21 [Compound 5s, 2,2-Bis(5-bromo-1-methyl-1H-indol-3-yl)acetonitrile]	Mixed type
N#CC(c1c[nH]c2ccc(Br)cc12)c1c[nH]c2ccc(Br)cc12 [Compound 5g, 2,2-Bis(5-bromo-1H-indol-3-yl)acetonitrile]	Mixed type
N#CC(c1c(-c2ccccc2)[nH]c2ccccc12)c1c(-c2ccccc2)[nH]c2ccccc12 [Compound 5h, 2,2-Bis(2-phenyl-1H-indol-3-yl)acetonitrile]	Mixed type

Same assay, conditions: Lineweaver-Burk plots; listed as 5 g

SMILES	Inhibition type against α-amylase
N#CC(c1c[nH]c2ccc(Br)cc12)c1c[nH]c2ccc(Br)cc12 [Compound 5g, 2,2-Bis(5-bromo-1H-indol-3-yl)acetonitrile]	mixed inhibitors

Same assay, conditions: Lineweaver-Burk plots; listed as 5 s

SMILES	Inhibition type against α-amylase
Cn1cc(C(C#N)c2cn(C)c3ccc(Br)cc23)c2cc(Br)ccc21 [Compound 5s, 2,2-Bis(5-bromo-1-methyl-1H-indol-3-yl)acetonitrile]	mixed inhibitors

Same assay, conditions: Lineweaver-Burk plots; listed as 5 h

SMILES	Inhibition type against α-amylase
N#CC(c1c(-c2ccccc2)[nH]c2ccccc12)c1c(-c2ccccc2)[nH]c2ccccc12 [Compound 5h, 2,2-Bis(2-phenyl-1H-indol-3-yl)acetonitrile]	mixed inhibitors

Same assay, conditions: binding of inhibitor to enzyme-substrate complex

SMILES	KIS value (μM) against α-amylase [µM]
Cn1cc(C(C#N)c2cn(C)c3ccc(Br)cc23)c2cc(Br)ccc21 [Compound 5s, 2,2-Bis(5-bromo-1-methyl-1H-indol-3-yl)acetonitrile]	9.01
N#CC(c1c[nH]c2ccc(Br)cc12)c1c[nH]c2ccc(Br)cc12 [Compound 5g, 2,2-Bis(5-bromo-1H-indol-3-yl)acetonitrile]	25.02
N#CC(c1c(-c2ccccc2)[nH]c2ccccc12)c1c(-c2ccccc2)[nH]c2ccccc12 [Compound 5h, 2,2-Bis(2-phenyl-1H-indol-3-yl)acetonitrile]	1.63

Same assay, conditions: plots of enzyme concentration vs remaining enzyme activity

SMILES	Reversibility of α-amylase inhibition
Cn1cc(C(C#N)c2cn(C)c3ccc(Br)cc23)c2cc(Br)ccc21 [Compound 5s, 2,2-Bis(5-bromo-1-methyl-1H-indol-3-yl)acetonitrile]	reversibly inhibited
N#CC(c1c[nH]c2ccc(Br)cc12)c1c[nH]c2ccc(Br)cc12 [Compound 5g, 2,2-Bis(5-bromo-1H-indol-3-yl)acetonitrile]	reversibly inhibited
N#CC(c1c(-c2ccccc2)[nH]c2ccccc12)c1c(-c2ccccc2)[nH]c2ccccc12 [Compound 5h, 2,2-Bis(2-phenyl-1H-indol-3-yl)acetonitrile]	reversibly inhibited

Tested on: 3T3-L1 cells
Test: In vitro cytotoxicity assay (MTT) on 3T3-L1 cells
Type: cell-based, Mouse
Settings: 20 ∼ 80 μM, 24 h
Description: (§1) Moreover, the preliminary in vitro safety of compounds 5e, 5 g, 5 h, and 5 s were tested on Mouse Preadipocytes cells (3T3-L1) and Human liver cancer cells (HepG2) using MTT method and the results were shown in Figure 11.
(§2) The 3T3-L1 cells or HepG2 cells were cultured in DMEM medium containing 10% foetal bovine serum, 100 U/mL penicillin and 0.1 mg/mL streptomycin in a humidified incubator with a 5% CO2 atmosphere at 37 °C. Cells in the logarithmic growth phase were used for this assay. After 5 × 10^3 3T3-L1 cells were seeded in 96 well plates for 24 h, compound with different concentration was added into each well for 24 h. MTT reagent (100 μL, 0.5 mg/mL) was added to each well for 4 h incubation. After the supernatant was discarded, 100 μL of DMSO was added. The absorbance was measured at 490 nm. Each sample was performed in 3 parallel experiments.

SMILES	Effect on the viability of 3T3-L1 cells
N#CC(c1c[nH]c2cc(Cl)ccc12)c1c[nH]c2cc(Cl)ccc12 [Compound 5e, 2,2-Bis(6-chloro-1H-indol-3-yl)acetonitrile]	no effect on the viability
Cn1cc(C(C#N)c2cn(C)c3ccc(Br)cc23)c2cc(Br)ccc21 [Compound 5s, 2,2-Bis(5-bromo-1-methyl-1H-indol-3-yl)acetonitrile]	no effect on the viability
N#CC(c1c[nH]c2ccc(Br)cc12)c1c[nH]c2ccc(Br)cc12 [Compound 5g, 2,2-Bis(5-bromo-1H-indol-3-yl)acetonitrile]	no effect on the viability
N#CC(c1c(-c2ccccc2)[nH]c2ccccc12)c1c(-c2ccccc2)[nH]c2ccccc12 [Compound 5h, 2,2-Bis(2-phenyl-1H-indol-3-yl)acetonitrile]	no effect on the viability

Tested on: HepG2 cells
Test: In vitro cytotoxicity assay (MTT) on HepG2 cells
Type: cell-based, Human
Settings: 20 ∼ 80 μM, 24 h
Description: as §1, §2

SMILES	Effect on the viability of HepG2 cells
N#CC(c1c[nH]c2cc(Cl)ccc12)c1c[nH]c2cc(Cl)ccc12 [Compound 5e, 2,2-Bis(6-chloro-1H-indol-3-yl)acetonitrile]	no effect on the viability
Cn1cc(C(C#N)c2cn(C)c3ccc(Br)cc23)c2cc(Br)ccc21 [Compound 5s, 2,2-Bis(5-bromo-1-methyl-1H-indol-3-yl)acetonitrile]	no effect on the viability
N#CC(c1c[nH]c2ccc(Br)cc12)c1c[nH]c2ccc(Br)cc12 [Compound 5g, 2,2-Bis(5-bromo-1H-indol-3-yl)acetonitrile]	no effect on the viability
N#CC(c1c(-c2ccccc2)[nH]c2ccccc12)c1c(-c2ccccc2)[nH]c2ccccc12 [Compound 5h, 2,2-Bis(2-phenyl-1H-indol-3-yl)acetonitrile]	no effect on the viability

Tested on: not given
Test: not given
Settings: not given

SMILES	melting point [°C]
COc1ccc2[nH]cc(C(C#N)c3c[nH]c4ccc(OC)cc34)c2c1 [Compound 5p, 2,2-Bis(5-methoxy-1H-indol-3-yl)acetonitrile]	118.5 to 123
N#CC(c1c[nH]c2c(Cl)cccc12)c1c[nH]c2c(Cl)cccc12 [Compound 5f, 2,2-Bis(7-chloro-1H-indol-3-yl)acetonitrile]	162.2 to 168.8
Cc1cccc2c(C(C#N)c3c[nH]c4c(C)cccc34)c[nH]c12 [Compound 5m, 2,2-Bis(7-methyl-1H-indol-3-yl)acetonitrile]	214.1 to 219.4
Cc1[nH]c2ccccc2c1C(C#N)c1c(C)[nH]c2ccccc12 [Compound 5i, 2,2-Bis(2-methyl-1H-indol-3-yl)acetonitrile]	231.2 to 236.6
N#CC(c1c[nH]c2cccc(Cl)c12)c1c[nH]c2cccc(Cl)c12 [Compound 5c, 2,2-Bis(4-chloro-1H-indol-3-yl)acetonitrile]	230 to 235.8
Cc1cccc2[nH]cc(C(C#N)c3c[nH]c4cccc(C)c34)c12 [Compound 5j, 2,2-Bis(4-methyl-1H-indol-3-yl)acetonitrile]	246.2 to 250.1
Cc1ccc2c(C(C#N)c3c[nH]c4cc(C)ccc34)c[nH]c2c1 [Compound 5l, 2,2-Bis(6-methyl-1H-indol-3-yl)acetonitrile]	178.4 to 183.7
COC(=O)CNc1ccc(C(C#N)c2ccc(NCC(=O)OC)cc2)cc1 [Compound 7c, Dimethyl 2,2’-(((cyanomethylene)bis(4,1-phenylene))bis(azanediyl))diacetate]	135.7 to 140.8
Cc1ccc2[nH]cc(C(C#N)c3c[nH]c4ccc(C)cc34)c2c1 [Compound 5k, 2,2-Bis(5-methyl-1H-indol-3-yl)acetonitrile]	205.1 to 210.1
N#CC(c1c[nH]c2cc(Cl)ccc12)c1c[nH]c2cc(Cl)ccc12 [Compound 5e, 2,2-Bis(6-chloro-1H-indol-3-yl)acetonitrile]	175.6 to 178.2
N#CC(c1c[nH]c2ccccc12)c1c[nH]c2ccccc12 [Compound 5a, 2,2-Di(1H-indol-3-yl)acetonitrile]	173.9 to 178.3
Cn1cc(C(C#N)c2cn(C)c3ccc(Br)cc23)c2cc(Br)ccc21 [Compound 5s, 2,2-Bis(5-bromo-1-methyl-1H-indol-3-yl)acetonitrile]	177.7 to 181.7
Cn1cc(C(C#N)c2cn(C)c3ccccc23)c2ccccc21 [Compound 5r, 2,2-Bis(1-methyl-1H-indol-3-yl)acetonitrile]	70.3 to 74.6
N#CC(c1c[nH]c2ccc(Cl)cc12)c1c[nH]c2ccc(Cl)cc12 [Compound 5d, 2,2-Bis(5-chloro-1H-indol-3-yl)acetonitrile]	168 to 173.4
Cc1ccc2[nH]c(C)c(C(C#N)c3c(C)[nH]c4ccc(C)cc34)c2c1 [Compound 5o, 2,2-Bis(2,5-dimethyl-1H-indol-3-yl)acetonitrile]	231.2 to 236.4
Cc1[nH]c2ccc(F)cc2c1C(C#N)c1c(C)[nH]c2ccc(F)cc12 [Compound 5n, 2,2-Bis(5-fluoro-2-methyl-1H-indol-3-yl)acetonitrile]	183.4 to 188
COC(=O)c1ccc2[nH]cc(C(C#N)c3c[nH]c4ccc(C(=O)OC)cc34)c2c1 [Compound 5q, Dimethyl 3,3'-(cyanomethylene)bis(1H-indole-5-carboxylate)]	259.6 to 266.9
N#CC(c1c[nH]c2ccc(F)cc12)c1c[nH]c2ccc(F)cc12 [Compound 5b, 2,2-Bis(5-fluoro-1H-indol-3-yl)acetonitrile]	182.7 to 187.5
CCOC(=O)CNc1ccc(C(C#N)c2ccc(NCC(=O)OCC)cc2)cc1 [Compound 7b, Diethyl 2,2’-(((cyanomethylene)bis(4,1-phenylene))bis(azanediyl))diacetate]	87.5 to 93.4
N#CC(c1c(-c2ccccc2)[nH]c2ccccc12)c1c(-c2ccccc2)[nH]c2ccccc12 [Compound 5h, 2,2-Bis(2-phenyl-1H-indol-3-yl)acetonitrile]	112 to 117.9
